Assay results reported in the supplement of paper PMC10307832.

What was measured:
Assay in all cases: relative viability (nuclei count vs DMSO), 5 days (fraction); higher = more cells survive
Fedratinib + Linsitinib = compound: Cc1cnc(Nc2ccc(OCCN3CCCC3)cc2)nc1Nc1cccc(S(=O)(=O)NC(C)(C)C)c1 [Fedratinib] + C[C@]1(O)C[C@@H](c2nc(-c3ccc4ccc(-c5ccccc5)nc4c3)c3c(N)nccn32)C1 [Linsitinib] (partner 1 µM)
How it was run: (§1)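 Medians of duplicate plates are given as relative viability. That measure is the nuclei count in treated wells divided by the count in vehicle wells. Counts were taken on 4× images of lung cancer cell lines in 1536-well plates, 5 days after pin-tool dosing the day after seeding with one drug alone or a fixed anchor-drug dose plus five library-drug doses (not always all listed) in √10 steps.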

GW-2580 + Luminespib = compound: COC1=CC=C(C=C1)COC2=C(C=C(C=C2)CC3=CN=C(N=C3N)N)OC [GW-2580] + CCNC(=O)c1noc(-c2cc(C(C)C)c(O)cc2O)c1-c1ccc(CN2CCOCC2)cc1 [Luminespib] (partner 0.01 µM)
How it was run: as §1

Fedratinib + Decitabine = compound: Cc1cnc(Nc2ccc(OCCN3CCCC3)cc2)nc1Nc1cccc(S(=O)(=O)NC(C)(C)C)c1 [Fedratinib] + Nc1ncn([C@H]2C[C@H](O)[C@@H](CO)O2)c(=O)n1 [Decitabine] (partner 2 µM)
How it was run: as §1

GW-2580 + Olaparib = compound: COC1=CC=C(C=C1)COC2=C(C=C(C=C2)CC3=CN=C(N=C3N)N)OC [GW-2580] + O=C(c1cc(Cc2n[nH]c(=O)c3ccccc23)ccc1F)N1CCN(C(=O)C2CC2)CC1 [Olaparib] (partner 8 µM)
How it was run: as §1

Fedratinib + Foretinib = compound: Cc1cnc(Nc2ccc(OCCN3CCCC3)cc2)nc1Nc1cccc(S(=O)(=O)NC(C)(C)C)c1 [Fedratinib] + COc1cc2c(Oc3ccc(NC(=O)C4(C(=O)Nc5ccc(F)cc5)CC4)cc3F)ccnc2cc1OCCCN1CCOCC1 [Foretinib] (partner 0.25 µM)
How it was run: as §1

Fedratinib + Crizotinib = compound: Cc1cnc(Nc2ccc(OCCN3CCCC3)cc2)nc1Nc1cccc(S(=O)(=O)NC(C)(C)C)c1 [Fedratinib] + C[C@@H](Oc1cc(-c2cnn(C3CCNCC3)c2)cnc1N)c1c(Cl)ccc(F)c1Cl [Crizotinib] (partner 1 µM)
How it was run: as §1

Cell Line	relative viability (Fedratinib + Linsitinib; first compound 0.1 µM)	relative viability (Fedratinib + Linsitinib; first compound 0.3162 µM)	relative viability (Fedratinib + Linsitinib; first compound 1 µM)	relative viability (GW-2580 + Luminespib; first compound 0.08 µM)	relative viability (GW-2580 + Luminespib; first compound 0.8 µM)	relative viability (GW-2580 + Luminespib; first compound 2.53 µM)	relative viability (GW-2580 + Luminespib; first compound 8 µM)	relative viability (Fedratinib + Decitabine; first compound 0.1 µM)	relative viability (Fedratinib + Decitabine; first compound 0.3162 µM)	relative viability (Fedratinib + Decitabine; first compound 1 µM)	relative viability (GW-2580 + Olaparib; first compound 0.08 µM)	relative viability (GW-2580 + Olaparib; first compound 0.8 µM)	relative viability (GW-2580 + Olaparib; first compound 2.53 µM)	relative viability (GW-2580 + Olaparib; first compound 8 µM)	relative viability (Fedratinib + Foretinib; first compound 0.1 µM)	relative viability (Fedratinib + Foretinib; first compound 0.3162 µM)	relative viability (Fedratinib + Foretinib; first compound 1 µM)	relative viability (Fedratinib + Crizotinib; first compound 0.1 µM)	relative viability (Fedratinib + Crizotinib; first compound 0.3162 µM)	relative viability (Fedratinib + Crizotinib; first compound 1 µM)
HCC-15	0.755	0.719	0.734	0.308	0.296	0.436	0.521	0.507	0.738	0.533	0.841	0.628	0.66	0.75	1.02	1.01	0.86	0.839	0.762	0.71
HCC-44	0.621	0.652	0.667	1.14	0.945	0.988	1.15	0.929	0.947	0.949	1.04	1.05	1.04	1.03				0.797	0.756	0.85
HCC-78	0.427		0.49					0.693	0.73	0.705	0.818	0.919	0.757	0.861	0.504	0.548	0.509	0.346		0.305
HCC-366	0.55	0.663	0.663					0.29	0.307	0.366	0.379	0.526	0.387	0.417	0.918	0.922	0.911	0.21	0.5	0.416
HCC-827	0.964	1.01	0.948	0.92	0.762	0.508	0.56	0.292	0.336	0.318	0.692	0.642	0.632	0.617	1.03	1.07	0.96	0.985	0.963	0.953
IA-LM	0.547	0.546	0.786								0.844	1	0.853	0.756	1.15	1.23	1.12	0.805	0.589	0.736
NCI-H522				1.22	1.57	1.14	1.24	0.634	0.698	0.668	0.623	0.608	0.611	0.602						
NCI-H1299	0.946	0.96	0.994								1.05	0.965	0.922	0.876	1.06	1.09	1.07	0.884	0.946	0.94
NCI-H1395	1.2	1.29	1.28	0.723	0.665	0.648	0.59	0.628	0.738	0.622	0.426	0.427	0.489	0.425	0.926	0.956	0.959			
NCI-H1563	1.16	1.18	1.16	0.546	0.522	0.484	0.545								0.894	0.927	0.874	0.898	0.893	0.842
NCI-H1623				0.382	0.43	0.482	0.471								0.839	0.876	0.817			
NCI-H1648								0.473	0.51	0.443	1.34		0.666	0.764						
NCI-H1650				0.195	0.195	0.197	0.182	0.454	0.349	0.399	0.704	0.951	0.719	0.774		1.1	0.885	0.706	0.926	0.888
NCI-H1703		0.98	0.615								0.418	0.43	0.412	0.363	0.317	0.296	0.324	0.629	0.51	0.533
NCI-H1792	0.611	0.547	0.542	0.503	0.444	0.567	0.411	0.429	0.438	0.504	0.596	0.929	0.255	0.44				1.26	0.972	0.854
NCI-H1793	0.937	0.857	0.899	0.187	0.238	0.162	0.151	0.501	0.526	0.406	0.892	1.02	0.822	0.804	0.506	0.765	0.45			
NCI-H2170				0.827	0.572	0.851	0.594	0.478	0.466	0.443	0.616	0.702	0.569	0.574	1.02	0.996	1.02	1.12	1.07	0.871
NCI-H2228	0.609	0.837	0.543	0.167	0.185	0.0943	0.183				0.667	0.828	0.785	0.635	0.847	0.825	0.743	0.528	0.46	0.392
NCI-H2342				0.788	0.77	0.859	0.714	0.753	0.759	0.745	0.397	0.59	0.382	0.382	1.05	1.07	0.989			
SW 900				0.17	0.182	0.161	0.146	0.399	0.425	0.516	0.864	1.03	0.994	0.747	0.868	1.05	0.804			
